Results on 10 compounds are retold here after ChEMBL document CHEMBL5260853, “Small Molecules Targeting Activated Cdc42-Associated Kinase 1 (ACK1/TNK2) for the Treatment of Cancers” (J Med Chem, 2021).

pIC50: −log10 of the molar value.

Assay [1] can be described thus: Inhibition of ACK1 R806Q mutant in mouse BaF3 cells. Format: cell-based.
The nature of assay [2]: Inhibition of ACK1 D163E mutant in mouse BaF3 cells. Format: cell-based.
In assay [3] the test system is MDA-MB-157. Kind of assay: Antiproliferative activity against human MDA-MB-157 cells treated for 96 hrs by trypan blue exclusion assay. Format: functional, cell-based. To be noted: MDA-MB-157, 96 h.
In assay [4] the target is T1, Activated CDC42 kinase 1 (Homo sapiens, UniProt Q07912). Kind of assay: Inhibition of ACK1 (unknown origin).
Target sequence in this assay (Q07912 whole entry): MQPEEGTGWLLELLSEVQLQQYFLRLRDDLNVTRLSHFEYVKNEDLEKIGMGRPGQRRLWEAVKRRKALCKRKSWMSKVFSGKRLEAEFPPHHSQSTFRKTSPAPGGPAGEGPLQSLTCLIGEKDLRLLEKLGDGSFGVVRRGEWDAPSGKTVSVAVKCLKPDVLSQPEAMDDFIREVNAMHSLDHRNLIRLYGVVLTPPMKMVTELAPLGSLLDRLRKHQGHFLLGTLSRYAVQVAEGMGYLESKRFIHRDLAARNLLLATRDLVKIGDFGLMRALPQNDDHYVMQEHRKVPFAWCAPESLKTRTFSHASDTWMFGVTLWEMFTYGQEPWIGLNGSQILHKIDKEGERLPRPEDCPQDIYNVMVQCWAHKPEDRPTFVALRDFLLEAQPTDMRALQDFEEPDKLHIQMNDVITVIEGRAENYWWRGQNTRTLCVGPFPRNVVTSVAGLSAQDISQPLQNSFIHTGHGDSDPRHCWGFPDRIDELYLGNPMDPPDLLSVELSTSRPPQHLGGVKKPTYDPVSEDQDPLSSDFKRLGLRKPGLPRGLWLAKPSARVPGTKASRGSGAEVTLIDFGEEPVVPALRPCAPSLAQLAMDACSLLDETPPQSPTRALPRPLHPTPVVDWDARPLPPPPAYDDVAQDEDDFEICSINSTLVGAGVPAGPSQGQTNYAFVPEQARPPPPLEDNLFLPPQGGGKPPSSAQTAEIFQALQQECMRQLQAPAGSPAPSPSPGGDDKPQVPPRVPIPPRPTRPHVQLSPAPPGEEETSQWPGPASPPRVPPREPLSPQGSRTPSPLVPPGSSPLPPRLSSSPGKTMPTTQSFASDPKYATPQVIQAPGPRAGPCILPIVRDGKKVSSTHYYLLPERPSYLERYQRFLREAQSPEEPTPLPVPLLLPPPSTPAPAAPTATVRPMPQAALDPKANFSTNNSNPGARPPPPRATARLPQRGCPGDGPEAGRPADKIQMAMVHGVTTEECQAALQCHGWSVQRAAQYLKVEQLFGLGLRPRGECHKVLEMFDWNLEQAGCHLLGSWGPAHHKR
Assay [5] deals with T1, Activated CDC42 kinase 1. Nature of the assay: Inhibition of ACK1 (unknown origin) at 10 uM relative to control.
Target sequence in this assay (Q07912 whole entry, looked up): as the sequence (Q07912 whole entry) above

As to `CN1c2ccccc2C(=O)Nc2cnc(Nc3ccc(N4CCC(O)CC4)cc3)nc21`, the pIC50 – broadly, the negative decadic logarithm of the IC50, by convention in mol/L – is 7.11 in assay [1] and 7.80 in assay [2]. The matching figures for `Cc1nc(Nc2ncc(C(=O)Nc3c(C)cccc3Cl)s2)cc(N2CCN(CCO)CC2)n1` [DASATINIB]: 8.89 and 10.00. In the case of `CN1CCN(c2ccc(Nc3ncc(Cl)c(NC[C@H]4CCCO4)n3)cc2)CC1`, the pIC50 in assay [3] was 6.32. Take `COc1cc(N2CCN(C)CC2)ccc1Nc1ncc2c(n1)N(C)c1ccccc1C(=O)N2`: the pIC50 in assay [1] is 6.95; in assay [2], 7.42. `Cc1cc(Nc2ncc(Cl)c(Nc3ccccc3S(=O)(=O)C(C)C)n2)c(OC(C)C)cc1C1CCNCC1` [CERITINIB] showed a pIC50 in assay [4] of 7.47. As for `CNc1cc2c(Nc3cccc(Br)c3)ncnc2cn1`, the pIC50 in assay [4] is 6.70. Consider `COc1cc2ncnc(Nc3ccc(F)c(Cl)c3)c2cc1OCCCN1CCOCC1`, for which the inhibition (in general, how much of the control response was suppressed) in assay [5] was 77%. In the case of `CN1CC[C@H](c2c(O)cc(O)c3c(=O)cc(-c4ccccc4Cl)oc23)[C@H](O)C1` [ALVOCIDIB], the inhibition in assay [5] stood at 74%. Besides, the pIC50 in assay [4] is greater than 4.70. For `C=CC(=O)Nc1cc(Nc2nccc(-c3cn(C)c4ccccc34)n2)c(OC)cc1N(C)CCN(C)C` [OSIMERTINIB], the pIC50 in assay [4] was 7.15.

Regarding `CCN(CC)CCNC(=O)c1c(C)[nH]c(/C=C2\C(=O)Nc3ccc(F)cc32)c1C`, the inhibition in assay [5] is 33%.
